Measurements published in US12558428B2, “Heterobifunctional compounds and their use in treating disease” (Halda Therapeutics OpCo, Inc., priority 2024, dated 2026).
Where two headings read alike, the source gives them in different places.

How the values were obtained:
Assay type in all cases: cell-based
[1] = tested on: T-Rex 293 cells having increased expression of estrogen receptor alpha protein; experiment: Cellular growth inhibition assay, T-Rex 293 cells, (+) doxycycline; settings: T-REx-293, 72 h, T-Rex 293 cells with doxycycline (increased ERα expression), 72 hours, CellTiter-Glo, read-out: (+) Dox GI50
Procedure, shortened: (§1)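 Growth of a doxycycline-inducible ERα T-Rex 293 clone, induced or not with 3 ng/mL doxycycline, was followed for 72 h with test compound in hormone-depleted medium. CellTiter-Glo luminescence gave GI50.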

[2] = tested on: T-Rex 293 cells lacking increased expression of estrogen receptor alpha protein; experiment: Cellular growth inhibition assay, T-Rex 293 cells, (−) doxycycline; settings: T-REx-293, 72 h, T-Rex 293 cells without doxycycline (lacking increased ERα expression), 72 hours, CellTiter-Glo, read-out: (−) Dox GI50
Procedure, shortened: as §1

[3] = tested on: MCF7 cells (ATCC #HTB-22); experiment: Cellular growth inhibition assay, MCF7 cells purchased from ATCC; settings: Homo sapiens, MCF7, 144 h, Table 8-A; MCF7 cells purchased from ATCC; six days; CellTiter-Glo; read-out: GI50
Procedure, shortened: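 GI50 values come from a four-parameter fit of CellTiter-Glo 2.0 luminescence after six days of compound exposure at 37° C. Seeding density depended on the source: 225 cells/well for ECACC MCF7, 1,500 for ATCC. Medium was RPMI 1640 with 10% FBS and 0.2 U/ml insulin.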

| Structure (SMILES) | GI50 ([1]; Table 7-A) [µM] | GI50 ([2]; Table 7-A) [µM] | GI50 [3] [µM] | GI50 ([1]; Table 7-B) [µM] | GI50 ([2]; Table 7-B) [µM] |
| --- | --- | --- | --- | --- | --- |
| Cc1sc2c(c1C)C(c1ccc(N3CCC(O)(CN4CCN(c5cc(F)c([C@H]6c7ccc(O)cc7CC[C@H]6c6ccccc6)cc5F)CC4)CC3)cc1)=N[C@@H](Cc1ncco1)c1nnc(C)n1-2 [III-300] | < 0.05 | 0.05 to 0.5 | 0.05 to 0.5 | – | – |
| Cc1sc2c(c1C)C(c1ccc(N3CCC(O)(CN4CCN(c5ccc([C@H]6c7ccc(O)cc7CC[C@H]6c6ccc(F)cc6)cc5Cl)CC4)CC3)cc1)=N[C@@H](C)c1nnc(C)n1-2 [III-301] | 0.5 to 2.5 | 0.5 to 2.5 | 0.05 to 0.5 | – | – |
| Cc1sc2c(c1C)C(c1ccc(N3CCC(O)(CN4CCN(c5ccc([C@@H]6c7ccc(O)cc7CC[C@@H]6c6ccc(F)cc6)cc5Cl)CC4)CC3)cc1)=N[C@@H](C)c1nnc(C)n1-2 [III-302] | 0.05 to 0.5 | 0.5 to 2.5 | 0.05 to 0.5 | – | – |
| Cc1sc2c(c1C)C(c1ccc(N3CCC(O)(CN4CCN(c5cc(F)c([C@H]6c7ccc(O)cc7CC[C@H]6c6ccccc6)cc5F)CC4)CC3)cc1F)=N[C@@H](C)c1nnc(C)n1-2 [III-303] | 0.05 to 0.5 | 0.05 to 0.5 | 0.05 to 0.5 | – | – |
| Cc1sc2c(c1C)C(c1ccc(N3CCC(O)(CN4CCN(c5cc(F)c([C@@H]6c7ccc(O)cc7CC[C@@H]6c6ccccc6)cc5F)CC4)CC3)cc1F)=N[C@@H](C)c1nnc(C)n1-2 [III-304] | < 0.05 | 0.5 to 2.5 | < 0.05 | – | – |
| Cc1sc2c(c1C)C(c1ccc(N3CCC(O)(CN4CCN(c5ccc([C@@H]6c7ccc(O)cc7CC[C@@H]6c6ccc(F)cc6)c(Cl)c5)CC4)CC3)cc1)=N[C@@H](C)c1nnc(C)n1-2 [III-305] | < 0.05 | 0.5 to 2.5 | < 0.05 | – | – |
| Cc1sc2c(c1C)C(c1ccc(N3CCC(O)(CN4CCN(c5ccc([C@H]6c7ccc(O)cc7CC[C@H]6c6ccc(F)cc6)c(Cl)c5)CC4)CC3)cc1)=N[C@@H](C)c1nnc(C)n1-2 [III-306] | 0.05 to 0.5 | 0.5 to 2.5 | 0.05 to 0.5 | – | – |
| COc1cc(N2CCN(CC3(O)CCN(c4ccc(C5=N[C@@H](C)c6nnc(C)n6-c6sc(C)c(C)c65)cc4)CC3)CC2)ccc1[C@H]1c2ccc(O)cc2CC[C@H]1c1cccc(F)c1 [III-309] | 0.05 to 0.5 | 0.05 to 0.5 | 0.05 to 0.5 | – | – |
| COc1cc(N2CCN(CC3(O)CCN(c4ccc(C5=N[C@@H](C)c6nnc(C)n6-c6sc(C)c(C)c65)cc4)CC3)CC2)ccc1[C@@H]1c2ccc(O)cc2CC[C@@H]1c1cccc(F)c1 [III-310] | < 0.05 | 0.5 to 2.5 | < 0.05 | – | – |
| Cc1sc2c(c1C)C(c1ccc(N3CCC(CN4CCN(c5cc(F)c([C@@H]6c7ccc(O)cc7CC[C@@H]6c6ccccc6)cc5F)CC4)CC3)cc1)=N[C@@H](C)c1nnc(C)n1-2 [III-317] | < 0.05 | 0.05 to 0.5 | 0.05 to 0.5 | – | – |
| Cc1sc2c(c1C)C(c1ccc(N3CCC(CN4CCN(c5cc(F)c([C@H]6c7ccc(O)cc7CC[C@H]6c6ccccc6)cc5F)CC4)CC3)cc1)=N[C@@H](C)c1nnc(C)n1-2 [III-318] | 0.05 to 0.5 | 0.05 to 0.5 | 0.05 to 0.5 | – | – |
| COc1cc(N2CCN(CC3(O)CCN(c4cc(F)c(C5=N[C@@H](C)c6nnc(C)n6-c6sc(C)c(C)c65)cc4F)CC3)CC2)ccc1[C@@H]1c2ccc(O)cc2CC[C@@H]1c1ccccc1 [III-339, 1-(2,5-difluoro-4-((S)-2,3,6,9-tetramethyl-6H-thieno[3,2-f][1,2,4]triazolo[4,3-a][1,4]diazepin-4-yl)phenyl)-4-((4-(4-((1S,2S)-6-hydroxy-2-phenyl-1,2,3,4-tetrahydronaphthalen-1-yl)-3-methoxyphenyl)piperazin-1-yl)methyl)piperidin-4-ol] | < 0.05 | > 2.5 | < 0.05 | – | – |
| COc1cc(N2CCN(CC3(O)CCN(c4cc(F)c(C5=N[C@@H](C)c6nnc(C)n6-c6sc(C)c(C)c65)cc4F)CC3)CC2)ccc1[C@H]1c2ccc(O)cc2CC[C@H]1c1ccccc1 [III-340, 1-(2,5-difluoro-4-((S)-2,3,6,9-tetramethyl-6H-thieno[3,2-f][1,2,4]triazolo[4,3-a][1,4]diazepin-4-yl)phenyl)-4-((4-(4-((1R,2R)-6-hydroxy-2-phenyl-1,2,3,4-tetrahydronaphthalen-1-yl)-3-methoxyphenyl)piperazin-1-yl)methyl)piperidin-4-ol] | 0.05 to 0.5 | 0.05 to 0.5 | 0.05 to 0.5 | – | – |
| COc1cc(N2CCN(CC3(O)CCN(c4cc(F)c(C5=N[C@@H](C)c6nnc(C)n6-c6sc(C)c(C)c65)cc4F)CC3)CC2)c(F)cc1[C@@H]1c2ccc(O)cc2CC[C@@H]1c1ccccc1 [III-341, 1-(2,5-difluoro-4-((6S)-2,3,6,9-tetramethyl-6H-thieno[3,2-f][1,2,4]triazolo[4,3-a][1,4]diazepin-4-yl)phenyl)-4-((4-(2-fluoro-4-((1S,2S)-6-hydroxy-2-phenyl-1,2,3,4-tetrahydronaphthalen-1-yl)-5-methoxyphenyl)piperazin-1-yl)methyl)piperidin-4-ol] | < 0.05 | > 2.5 | < 0.05 | – | – |
| COc1cc(N2CCN(CC3(O)CCN(c4cc(F)c(C5=N[C@@H](C)c6nnc(C)n6-c6sc(C)c(C)c65)cc4F)CC3)CC2)c(F)cc1[C@H]1c2ccc(O)cc2CC[C@H]1c1ccccc1 [III-342, 1-(2,5-difluoro-4-((6S)-2,3,6,9-tetramethyl-6H-thieno[3,2-f][1,2,4]triazolo[4,3-a][1,4]diazepin-4-yl)phenyl)-4-((4-(2-fluoro-4-((1R,2R)-6-hydroxy-2-phenyl-1,2,3,4-tetrahydronaphthalen-1-yl)-5-methoxyphenyl)piperazin-1-yl)methyl)piperidin-4-ol] | 0.05 to 0.5 | 0.05 to 0.5 | 0.05 to 0.5 | – | – |
| Cc1sc2c(c1C)C(c1ccc(N3C[C@@H]4C(NCCOc5ccc([C@H]6c7ccc(O)cc7CC[C@H]6c6ccccc6)cc5)[C@H]4C3)cc1)=NC(Cc1ncco1)c1nnc(C)n1-2 (stereo partly drawn) [III-347] | – | – | < 0.05 | < 0.05 | < 0.05 |
| Cc1sc2c(c1C)C(c1ccc(N3CCN(CC4CCN(c5ccc(C6=C(c7ccc(Cl)cc7Cl)CCCc7cc(C(=O)O)ccc76)cc5)CC4)CC3)cc1)=N[C@@H](C)c1nnc(C)n1-2 [IV-1] | < 0.05 | > 2.5 | 0.05 to 0.5 | – | – |
| Cc1sc2c(c1C)C(c1ccc(N3CCN(CCN4CC[C@H](Oc5ccc(C6=C(c7ccc(Cl)cc7Cl)CCCc7cc(C(=O)O)ccc76)cc5)C4)CC3)cc1)=N[C@@H](C)c1nnc(C)n1-2 [IV-2] | 0.05 to 0.5 | 0.5 to 2.5 | 0.05 to 0.5 | – | – |
| Cc1sc2c(c1C)C(c1ccc(N3CCN(CCN4CC(Oc5ccc(C6=C(c7ccc(Cl)cc7Cl)CCCc7cc(C(=O)O)ccc76)cc5)C4)CC3)cc1)=N[C@@H](C)c1nnc(C)n1-2 [IV-3] | < 0.05 | 0.5 to 2.5 | 0.05 to 0.5 | – | – |
| Cc1sc2c(c1C)C(c1ccc(N3CCN(CC4CCN(c5ccc(C6=C(c7ccc(Cl)cc7Cl)CCCc7cc(C(=O)O)ccc76)cc5)CC4)CC3)cc1)=N[C@@H](Cc1ncco1)c1nnc(C)n1-2 [IV-4] | 0.05 to 0.5 | 0.5 to 2.5 | < 0.05 | – | – |
| Cc1sc2c(c1C)C(c1ccc(N3CCC(O)(CN4CCC(c5ccc(C6=C(c7ccc(Cl)cc7Cl)CCCc7cc(C(=O)O)ccc76)cc5)CC4)CC3)cc1)=N[C@@H](C)c1nnc(C)n1-2 [IV-5] | < 0.05 | > 2.5 | 0.05 to 0.5 | – | – |
| Cc1sc2c(c1C)C(c1ccc(N3CCC(CN4CCC(c5ccc(C6=C(c7ccc(Cl)cc7Cl)CCCc7cc(C(=O)O)ccc76)cc5)CC4)CC3)cc1)=N[C@@H](C)c1nnc(C)n1-2 [IV-6] | 0.05 to 0.5 | 0.5 to 2.5 | 0.05 to 0.5 | – | – |
| Cc1sc2c(c1C)C(c1ccc(N3CCC(C(=O)N4CCN(c5ccc(C6=C(c7ccc(Cl)cc7Cl)CCCc7cc(C(=O)O)ccc76)cc5)CC4)CC3)cc1)=N[C@@H](C)c1nnc(C)n1-2 [IV-7] | 0.05 to 0.5 | 0.5 to 2.5 | 0.05 to 0.5 | – | – |
| Cc1sc2c(c1C)C(c1ccc(N3CC(CN4CCN(CC5CN(c6ccc(C7=C(c8ccc(Cl)cc8Cl)CCCc8cc(C(=O)O)ccc87)cc6)C5)CC4)C3)cc1)=N[C@@H](C)c1nnc(C)n1-2 [IV-8] | < 0.05 | 0.5 to 2.5 | < 0.05 | – | – |
| Cc1sc2c(c1C)C(c1ccc(N3CCC(O)(CN4CCN(c5ccc(C6=C(c7ccc(Cl)cc7Cl)CCCc7cc(C(=O)O)ccc76)cc5)CC4)CC3)cc1)=N[C@@H](C)c1nnc(C)n1-2 [IV-9] | < 0.05 | 0.5 to 2.5 | < 0.05 | – | – |
| Cc1sc2c(c1C)C(c1ccc(N3CC(CN4CCN(c5ccc(C6=C(c7ccc(Cl)cc7Cl)CCCc7cc(C(=O)O)ccc76)cc5)CC4)C3)cc1)=N[C@@H](C)c1nnc(C)n1-2 [IV-10] | 0.05 to 0.5 | 0.5 to 2.5 | 0.05 to 0.5 | – | – |
| Cc1sc2c(c1C)C(c1ccc(N3CCC(CN4CCN(c5ccc(C6=C(c7ccc(Cl)cc7Cl)CCCc7cc(C(=O)O)ccc76)cc5)CC4)CC3)cc1)=N[C@@H](C)c1nnc(C)n1-2 [IV-11] | < 0.05 | 0.5 to 2.5 | 0.05 to 0.5 | – | – |
| Cc1sc2c(c1C)C(c1ccc(CC(=O)N3CCC4(CCN(c5ccc(C6=C(c7ccc(Cl)cc7Cl)CCCc7cc(C(=O)O)ccc76)cc5)CC4)C3)cc1)=N[C@@H](C)c1nnc(C)n1-2 [IV-12] | 0.05 to 0.5 | 0.5 to 2.5 | 0.05 to 0.5 | – | – |
